The record followed here is patent publication US20060287345A1, “Substituted 4-phenyl-4-[1h-imidazol-2-yl]-piperidine derivatives as selective non-peptide delta opiod agonists with antidepressant and anxiolytic activity” (priority 2003, published 2006).

The structures appear in SMILES notation. Read-outs that look alike come from different tables or passages of the source. Some results are limits rather than exact numbers.

One data set has as its system C57BL/6 mice. The data set is described as follows: Mouse forced swim test. It is filed as in vivo. The conditions noted are these: s.c., immobility, treatment 30 min prior to test. The method, then: (§1) Antidepressant- and anxiolytic like properties of the compounds were examined in mouse tail suspension test (TS), mouse forced swim test (FS) and mouse neonatal ultrasonic vocalization test (USV).
This test has been validated as test for antidepressant-like activity (Borsini and Meli, Psychopharmacology 1988, 94, 147).
Adult male C57BL/6 mice (body weight 22-24 g Charles River, Sulzfeld, Germany) were housed individually in IVC racks and maintained under a 12:12 h light/dark cycle (lights on at 6:00 b), with food and water ad libitum.
A clear glass beaker (10 cm in diameter, 25 cm high) was filled to a depth of 10 cm with water (25° C.). Mice were placed into the water for 6 min. Immobility during the first and the last 3 min were scored automatically using the Videotrack video tracking system (Viewpoint, France), which allows detection of individual pixel movements. Four animals were tested in parallel. Treatment was given 30 min prior to test (s.c., 10 ml/kg). The water was replaced after each animal.
(§2) Data were analyzed using the non-parametric, unadjusted Wilcoxon-Mann-Whitney rank sum test. Each dose was compared with vehicle.

In a further data set the test system is neonatal C57BL/6 mice. The data set is described as follows: Mouse neonatal ultrasonic vocalization test. It is filed as in vivo. The following applies: s.c., postnatal day 3, 30 min after injection.
Description: as §1
Anxiolytic compounds typically decrease the vocalizations in rat pups separated from their mother (Olivier et al., Eur. J. Pharmacol. 1998, 358, 117) More recently, this test has also been established in mice (Dirks et al., Pharmacol. Biochem. Behav. 2002, 72, 993).
Seventeen days pregnant C57BL/6 mice were obtained from Charles River (Sulzfeld, Germany). They were housed and maintained at a constant temperature of 22° C., under a 12:12 h reversed light/dark cycle (lights off at 6:00 h), with food and water ad libitum. Two times per day, cages were checked for newborn litters. Litter size was 5-8 pups/litter.
Ultrasonic vocalizatiors (USVs) were recorded in a sound attenuating, ventilated chamber at room temperature, detected at 60 kHz (range 50-70 kHz) by a bat recorder in combination with the UltraVox system (Noldus, The Netherlands). No filter was used in order to be able to record pup clicks.
Distress calls of neonatal mice were measured in neonatal C57BL/6 mice at postnatal day 3 during the early dark phase (between 8:00 and 12:00). Pups were weighed (body weight 2-3 g), followed by subcutaneous injection (10 ml/kg), and placed back into the nest. After 30 min, they were separated from the mother and placed into a beaker underneath the bat detector. The number of calls and the duration of calls were recorded over a period of 5 min.
as §2

The test system of the next data set is NMRI mice. The experiment in a line: Mouse tail suspension test. The class given is in vivo. The following applies: s.c., immobility, 30 min after administration.
Data set [1] addresses T1, cloned human δ opioid receptor (Homo sapiens, UniProt P41143).
T1 construct: expressed in transfected cells; host or cells: C6 glioma cells (permanently transfected)
The data set is described as follows: Radioligand binding, competitive inhibition of [3H]DPDPE.

In data set [2] the target is T2, δ opioid receptor (Homo sapiens, UniProt P41143).
T2 construct: expressed in transfected cells; host or cells: C6 glioma cells (permanently transfected)
The experiment in a line: Signal transport binding, delta antagonism. It is filed as biochemical.

Data set [3] has as its target T2, δ opioid receptor. The experiment in a line: [35S]GTPγS binding, delta agonism. It is filed as biochemical. Background: Binding of GTPγS marks nucleotide exchange on a G protein.
Description: Second messenger signaling was measured on membrane preparations via stimulation of [^35S]GTPγS binding In this functional assay, agonistic and antagonistic properties of the compounds were investigated.
The assay mixtures contained 10 μg of membrane protein. An additional 10 μg/ml saponire was added to the diluted membranes as a detergent to maximize the [^35S]GTPγS penetration through the membranes.
For testing agonistic activity, 175 μl of diluted membranes was pre-incubated in the buffer described above together with 25 μl of buffer and 25 μl of varying concentrations of the compound in a total volume of 225 μl. For antagonistic activities, the 25 μl of the buffer addition was replaced with the reference agonist for stimulating the basal levels. […]
The amount of bound radioactivity on the filter unit was determined after filter drying and scintillant addition (Nicroscint-O; Packard) by liquid scintillation counting.
Basal [^35S]GTPγS binding was measured in absence of compounds. Stimulation by agonist was calculated as the percentage increase above basal levels. The sigmoid agonist concentration response curves for increases in [^35S]GTPγS binding and antagonist inhibition curves for inhibition of the reference agonist-stimulated [^35S]GTPγS binding were analyzed by non-linear regression using the GraphPad Prism program. […]
The target in data set [4] is cloned human μ opioid receptor (Homo sapiens, UniProt P35372). The data set is described as follows: Radioligand binding, competition with [3H]DAMGO. The following applies: Table 8, CHO membranes, read-out: Agonist receptor binding (pIC50) mu (converted).
Setting [5] is: Table 7, delta opioid receptor, read-out: pIC50 values for the delta opioid receptor agonist test (converted).

T1 sequence (P41143 whole entry): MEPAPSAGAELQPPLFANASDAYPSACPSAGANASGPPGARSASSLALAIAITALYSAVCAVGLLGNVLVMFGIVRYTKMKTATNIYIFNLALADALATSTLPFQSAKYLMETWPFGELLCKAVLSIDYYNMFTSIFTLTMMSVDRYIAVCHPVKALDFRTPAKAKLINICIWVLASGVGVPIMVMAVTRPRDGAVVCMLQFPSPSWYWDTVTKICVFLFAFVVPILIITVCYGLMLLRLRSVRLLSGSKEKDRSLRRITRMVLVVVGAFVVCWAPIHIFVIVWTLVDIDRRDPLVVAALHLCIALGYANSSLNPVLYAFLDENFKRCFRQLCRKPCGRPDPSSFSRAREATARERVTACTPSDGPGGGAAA
T2 sequence (P41143 whole entry): as above
Chain of cloned human μ opioid receptor (P35372 whole entry): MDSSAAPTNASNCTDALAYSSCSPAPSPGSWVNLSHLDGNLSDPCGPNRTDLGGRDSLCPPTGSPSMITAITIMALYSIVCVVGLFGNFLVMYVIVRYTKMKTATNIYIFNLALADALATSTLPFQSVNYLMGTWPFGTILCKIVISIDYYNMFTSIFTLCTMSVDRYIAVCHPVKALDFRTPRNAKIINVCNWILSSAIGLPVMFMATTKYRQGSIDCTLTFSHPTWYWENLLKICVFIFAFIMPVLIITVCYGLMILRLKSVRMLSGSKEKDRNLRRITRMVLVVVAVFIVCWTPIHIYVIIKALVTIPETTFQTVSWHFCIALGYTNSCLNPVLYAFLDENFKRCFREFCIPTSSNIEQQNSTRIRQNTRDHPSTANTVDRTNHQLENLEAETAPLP

As to `CCOC(=O)N1CCC(c2ccccc2)(c2nccn2Cc2ccccc2)CC1` [Compound 1, ethyl 4-phenyl-4-[1-(phenylmethyl)-1H-imidazol-2-yl]-1-piperidinecarboxylate], the “Forced swim (LAD) (Lowest Active Dose tested)” value in the data set with C57BL/6 mice came to 30 mg/kg s.c. For the same compound, in the data set with neonatal C57BL/6 mice, the “Ultrasonic vocalization (LAD) (Lowest Active Dose tested)” value (shortened to “Ultrasonic vocalization (LAD)”) is 10 mg/kg s.c. The “Tail suspension LAD (Lowest Active Dose tested)” value (shortened to “Tail suspension LAD”) in the data set with NMRI mice was found to be 30 mg/kg s.c. For the compound `O=C(c1ccccc1)N1CCC(c2ccccc2)(c2nccn2Cc2ccccc2)CC1` [Compound 2], in the data set on neonatal C57BL/6 mice, the “Ultrasonic vocalization (LAD)” value came out at 1 mg/kg s.c. Moreover, in the data set on NMRI mice, the “Tail suspension LAD” value came to 10 mg/kg s.c. On to `CCOC(=O)N1CCC(c2ccccc2)(c2nccn2Cc2ccc(C(=O)OC)cc2)CC1` [Compound 3], for which the melting point (as a rule, the temperature of the solid-liquid transition) came to 149.1 °C. In turn, `CCN/C(=N/C#N)N1CCC(c2ccccc2)(c2nccn2Cc2ccccc2)CC1` [Compound 4] registered a melting point of 84.2 °C. In data set [1], this compound had an IC50 of 50.1 nM. Compound `COC(=O)c1ccccc1NC(=O)N1CCC(c2ccccc2)(c2nccn2Cc2ccccc2)CC1` [Compound 7] showed an IC50 in data set [1] of 20 nM. Turning to `CCOC(=O)N1CCC(c2ccccc2)(c2nccn2Cc2ccc(C(=O)O)cc2)CC1` [Compound 8], the melting point was 251.6 °C. Take `O=C(Nc1ccccc1CO)N1CCC(c2ccccc2)(c2nccn2Cc2ccccc2)CC1` [Compound 10]: the IC50 in data set [1] (setting [5]) was 63.1 nM. On the same count and under the same terms, under `O=C(O)c1ccccc1NC(=O)N1CCC(c2ccccc2)(c2nccn2Cc2ccccc2)CC1` [Compound 11] stands 15.8 nM. In the case of `CCOC(=O)c1ccc(C(C)n2ccnc2C2(c3ccccc3)CCN(C(=O)OCC)CC2)cc1` (centres unmarked) [Compound 19], the IC50 at δ opioid receptor [2] (Table 8, against reference agonist DPDPE, read-out: Signal transport binding (pIC50) delta antag. (converted)) was over 10000 nM; on δ opioid receptor [3] (Table 8, [35S]GTPγS binding, membranes, read-out: Signal transport binding (pIC50) delta agonism GTPγS (converted)) it was 316 nM; in data set [4] ([3H]DAMGO 1 nM) it was over 1000 nM; in data set [1] (Agonist receptor binding (pIC50) delta, Table 8, [3H]DPDPE 2 nM, C6 glioma cell membranes) it was 6.31 nM. As for `CCOC(=O)N1CCC(c2ccccc2)(c2nccn2C(C)c2ccccc2)CC1` (centres unmarked) [Compound 20], the “Ultrasonic vocalization (LAD)” value in the data set on neonatal C57BL/6 mice amounted to 30 mg/kg s.c. Moreover, the “Tail suspension LAD” value in the data set with NMRI mice was found to be 30 mg/kg s.c. Regarding `CCOC(=O)N1CCC(c2ccccc2)(c2nccn2Cc2ccc3ccccc3c2)CC1` [Compound 22], the IC50 in data set [1] (setting [5]) was 50.1 nM. With `O=C(OC1CCCCC1)N1CCC(c2ccccc2)(c2nccn2Cc2ccccc2)CC1` [Compound 28], in data set [1], the IC50 was 15.8 nM.

With `O=C(C1CC1)N1CCC(c2ccccc2)(c2nccn2Cc2ccccc2)CC1` [Compound 36], in data set [1], the IC50 is 50.1 nM. Take `O=C(c1cc(C(F)(F)F)cc(C(F)(F)F)c1)N1CCC(c2ccccc2)(c2nccn2Cc2ccccc2)CC1` [Compound 42]: the IC50 in data set [1] (setting [5]) was 63.1 nM. Turning to `CCOC(=O)CNC(=O)N1CCC(c2ccccc2)(c2nccn2Cc2ccccc2)CC1` [Compound 48], in data set [1], the IC50 is 79.4 nM. Regarding `CCCCNC(=O)N1CCC(c2ccccc2)(c2nccn2Cc2ccccc2)CC1` [Compound 50], in data set [1], the IC50 is 25.1 nM. The same measure, in the same setting: under `O=C(NC1CCCCC1)N1CCC(c2ccccc2)(c2nccn2Cc2ccccc2)CC1` [Compound 51] stands 50.1 nM. Consider `COC(=O)c1ccc(Cn2ccnc2C2(c3ccccc3)CCN(C(=O)Nc3ccccc3)CC2)cc1` [Compound 52], for which, in data set [1] (setting [5]), the IC50 is 20 nM. Same read-out and setting: under `O=C(Nc1ccccc1Cl)N1CCC(c2ccccc2)(c2nccn2Cc2ccccc2)CC1` [Compound 65] stands 31.6 nM. As to `O=C(Nc1ccccc1Br)N1CCC(c2ccccc2)(c2nccn2Cc2ccccc2)CC1` [Compound 66], in data set [1], the IC50 was 31.6 nM. In the case of `CCOc1ccccc1NC(=O)N1CCC(c2ccccc2)(c2nccn2Cc2ccccc2)CC1` [Compound 70], the IC50 in data set [1] was 39.8 nM.

As to `O=C(Nc1ccc([N+](=O)[O-])cc1)N1CCC(c2ccccc2)(c2nccn2Cc2ccccc2)CC1` [Compound 71], the IC50 in data set [1] is 50.1 nM.

For the compound `O=C(Nc1ccccc1Oc1ccccc1)N1CCC(c2ccccc2)(c2nccn2Cc2ccccc2)CC1` [Compound 75], the IC50 in data set [1] was 39.8 nM. Same read-out and setting: to `CSc1ccccc1NC(=O)N1CCC(c2ccccc2)(c2nccn2Cc2ccccc2)CC1` [Compound 76] belongs 39.8 nM. As for `COc1ccc(Cl)cc1NC(=O)N1CCC(c2ccccc2)(c2nccn2Cc2ccccc2)CC1` [Compound 78], the IC50 in data set [1] (setting [5]) is 12.6 nM. In data set [1], `O=C(NCc1ccccc1)N1CCC(c2ccccc2)(c2nccn2Cc2ccccc2)CC1` [Compound 80] gave an IC50 of 79.4 nM.

With `O=C(Nc1ccc2ccccc2c1)N1CCC(c2ccccc2)(c2nccn2Cc2ccccc2)CC1` [Compound 81], the IC50 in data set [1] was 63.1 nM. In the case of `O=C(c1csc(-c2cccnc2)n1)N1CCC(c2ccccc2)(c2nccn2Cc2ccccc2)CC1` [Compound 84], the IC50 in data set [1] (setting [5]) is 31.6 nM. Compound `O=C(Nc1ccccn1)N1CCC(c2ccccc2)(c2nccn2Cc2ccccc2)CC1` [Compound 87] gave an IC50 in data set [1] of 50.1 nM. Consider `O=S(=O)(Nc1ccccc1)N1CCC(c2ccccc2)(c2nccn2Cc2ccccc2)CC1` [Compound 98], for which the IC50 was over 10000 nM at δ opioid receptor [2], 794 nM on δ opioid receptor [3], 2510 nM in data set [4] ([[…] 1 nM) and 6.31 nM in data set [1]. In data set [1], `CCN(CC)C(=O)c1ccc(Cn2ccnc2C2(c3ccccc3)CCN(c3nc4ccccc4o3)CC2)cc1` [Compound 99] gave an IC50 of 50.1 nM. On the same count and under the same terms, to `CC(c1ccccc1)n1ccnc1C1(c2ccccc2)CCN(c2nc3ccccc3o2)CC1` (centres unmarked) [Compound 101] belongs 15.8 nM.

As to `COC(=O)c1ccc(Cn2ccnc2C2(c3ccccc3)CCN(c3nc4ccccc4s3)CC2)cc1` [Compound 102], the IC50 in data set [4] ([3H]DAMGO 1 nM) is over 1000 nM; in data set [1] (Table 8, [3H]DPDPE 2 nM, C6 glioma cell membranes, read-out: Agonist receptor binding (pIC50) delta (converted)) it was 3.16 nM. In data set [1], `c1ccc(Cn2ccnc2C2(c3ccccc3)CCN(c3ncccn3)CC2)cc1` [Compound 103] showed an IC50 of 20 nM.

`c1ccc(Cn2ccnc2C2(c3ccccc3)CCN(c3nccs3)CC2)cc1` [Compound 105]: the IC50 in data set [1] is 12.6 nM.
